According to patent US20040019432A1, “System and method for integrated computer-aided molecular discovery” (priority 2002, published 2004):

Molecular target: T1, thrombin (Bos taurus, UniProt P00735)
T1 construct: purchased Sigma T-3399
Experiment: biological assay for thrombin inhibitory activity (fluorogenic substrate)
Type: biochemical
Details: for inhibition at 50 µM: test probe concentration 50 μM; for inhibition at 100 µM: test probe concentration 100 μM
Protocol: The biological assay for thrombin inhibitory activity is detailed below. To Costar® 96-well black fluorescence plate wells is added 70 microliters of assay buffer, followed by 10 microliters of 1 millimolar substrate solution. Test probe (10 microliters in 30% DMSO) is then added to wells according to the desired concentrations for the assay. The mixture is incubated at 37° C. for 5 minutes, followed by addition of 10 microliters of thrombin (100 micrograms/mL in assay buffer), to make a final assay volume of 100 microliters. The plate is mixed gently and incubated 15 minutes at 37° C. Stop buffer (100 microliters) is added, and the plate is read by detecting fluorescence intensity (Excitation at 360 nm, Emission at 460 nm). Percent inhibition of test compound is calculated by comparison with control wells. “Assay buffer” is composed of 100 mM KH2PO4, 100 mM Na2HPO4, 1 mM EDTA, 0.01% BRIJ-35, and 1 mM dithiothreitol (added fresh on the day assay is preformed). “Stop buffer” is composed of 100 mM Na—O(O)CCH2Cl and 30 mM sodium acetate which is brought to pH 2.5 with glacial acetic acid. Thrombin was purchased from Sigma (cat #T-3399). Thrombin substrate III fluorogenic was purchased from ICN (cat #195915). Sodium acetate, dithiothreitol, and Brij-35 were purchased from Sigma. Sodium monochloroacetate was purchased from Lancaster 223-498-3. Glacial acetic acid was purchased from Alfa Aesar (cat # 33252). Thrombin was stored at −20° C. Thrombin substrate fluorogenic was stored at −20° C. (5 mM in DMSO).

Which inhibition at 50 µM does the source give for `COc1ccc(CNC(=O)c2cc(Cl)ccc2NC(=O)c2n[nH]c3ccccc23)cc1OC` [Example B1] here?
Its inhibition at 50 µM is 10 to 39%.

And the inhibition at 100 µM?
Its inhibition at 100 µM is 40 to 74%.

Which inhibition at 50 µM does the source give for `CCCCN(CCCC)CCCNC(=O)c1cc(Cl)ccc1NC(=O)c1n[nH]c2ccccc12` [Example B2] here?
The inhibition at 50 µM was 10 to 39%.

And the inhibition at 100 µM?
The inhibition at 100 µM was 40 to 74%.

`CC(NC(=O)C(NC(=O)c1n[nH]c2ccccc12)C1CCNCC1)c1ccccc1` (stereo not drawn) [Example B3] was tested. Which inhibition at 50 µM did it give?
The inhibition at 50 µM was 10 to 39%.

What about the inhibition at 100 µM of the same compound?
The inhibition at 100 µM was 40 to 74%.
